Laboratory results: ChEMBL document CHEMBL1201862, “PubChem BioAssay data set” (2004)
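How tested: cells in 96-well plates exposed to compound for 48 hours at five concentrations. The concentration for 50% growth inhibition is given as GI50.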 The source made the active and inactive calls. Rule as the data show it: active = GI50 up to about 1.1 µM and inactive = higher.

What was measured:
Assay in all cases: NCI tumour cell line growth inhibition, 48 h
CAKI-1 = test system: CAKI-1
HCC 2998 = test system: HCC 2998
Malme-3M = test system: Malme-3M
A498 = test system: A498
HT-29 = test system: HT-29
COLO 205 = test system: COLO 205
ACHN = test system: ACHN
TK-10 = test system: TK-10
CCRF-CEM = test system: CCRF-CEM
NCI-H226 = test system: NCI-H226
Hs-578T = test system: Hs-578T
MDA-N = test system: MDA-N
SK-OV-3 = test system: SK-OV-3
SF-539 = test system: SF-539
SK-MEL-2 = test system: SK-MEL-2
MOLT-4 = test system: MOLT-4
UO-31 = test system: UO-31
UACC-62 = test system: UACC-62
HCT-15 = test system: HCT-15

Row | SMILES | GI50 (CAKI-1) | GI50 (HCC 2998) | GI50 (Malme-3M) | GI50 (A498) | GI50 (HT-29) | GI50 (COLO 205) | GI50 (ACHN) | GI50 (TK-10) | GI50 (CCRF-CEM) | GI50 (NCI-H226) | GI50 (Hs-578T) | GI50 (MDA-N) | GI50 (SK-OV-3) | GI50 (SF-539) | GI50 (SK-MEL-2) | GI50 (MOLT-4) | GI50 (UO-31) | GI50 (UACC-62) | GI50 (HCT-15) [µM]
1 | O=C1c2cc3c(cc2CC1Br)CCC3 (centres undefined) | 1.71 µM (inactive) | 5.64 µM (inactive) | 1.01 µM (active) | 18.1 µM (inactive) | 2.36 µM (inactive) | 1.97 µM (inactive) | 3.8 µM (inactive) | 2.75 µM (inactive) | 0.405 µM (active) | 3.36 µM (inactive) | 4.06 µM (inactive) | 1.82 µM (inactive) | 7.73 µM (inactive) | 2.03 µM (inactive) | 1.98 µM (inactive) | 0.953 µM (active) | 10.6 µM (inactive) | 3.3 µM (inactive) | 1.96
2 | CN(C)Cc1cc(/N=N/c2ccccc2)cc(CN(C)C)c1O | > 100 µM (inactive) | 79.1 µM (inactive) | > 100 µM (inactive) | 97.3 µM (inactive) | 73.8 µM (inactive) | 20.5 µM (inactive) | > 100 µM (inactive) | > 100 µM (inactive) | 32.3 µM (inactive) | > 100 µM (inactive) | > 100 µM (inactive) | > 100 µM (inactive) | > 100 µM (inactive) | > 100 µM (inactive) | 64.4 µM (inactive) | 45.8 µM (inactive) | 55 µM (inactive) | > 100 µM (inactive) | 56.6
3 | C/C1=C\[C@H](C)C[C@H](C)OC(=O)[C@H](C)NC(=O)[C@@H](Cc2ccc(O)c(Br)c2)N(C)C(=O)[C@H](C)NC(=O)[C@@H](C)C1 | 0.0149 µM (active) | 0.00408 µM (active) | 0.0708 µM (active) | 0.0149 µM (active) | 0.00783 µM (active) | 0.00728 µM (active) | 0.0326 µM (active) | 0.0724 µM (active) | 0.0124 µM (active) | 0.0505 µM (active) | 0.094 µM (active) | 0.0982 µM (active) | 0.0495 µM (active) | 0.053 µM (active) | 0.0502 µM (active) | 0.3 µM (active) | 0.0538 µM (active) | 0.146 µM (active) | 0.982
4 | CN(C)c1ccc(/N=N/c2ccccn2)cc1 | 32.2 µM (inactive) | 14.1 µM (inactive) | 22.6 µM (inactive) | 22.1 µM (inactive) | 11.1 µM (inactive) | 6.58 µM (inactive) | 31.8 µM (inactive) | 35.7 µM (inactive) | 4.17 µM (inactive) | 32 µM (inactive) | > 100 µM (inactive) | 33.7 µM (inactive) | 38.7 µM (inactive) | 52.2 µM (inactive) | 55.1 µM (inactive) | 4.17 µM (inactive) | 24.1 µM (inactive) | 33.4 µM (inactive) | 25.2
5 | CC(=O)Oc1cc2c(c3ncccc13)OC(C)(C)C2 | 7.4 µM (inactive) | 15.5 µM (inactive) | 11 µM (inactive) | 16.9 µM (inactive) | 15.7 µM (inactive) | 18.1 µM (inactive) | 11.1 µM (inactive) | 12.8 µM (inactive) | 10.5 µM (inactive) | 16.3 µM (inactive) | 5.12 µM (inactive) | 2.94 µM (inactive) | 27.2 µM (inactive) | 12.1 µM (inactive) | 17.6 µM (inactive) | 12.3 µM (inactive) | > 100 µM (inactive) | > 100 µM (inactive) | 11.8
6 | Fc1ccc(N2C(=S)SC(=N\c3ccccc3)/C2=N/c2ccccc2)cc1 | > 100 µM (inactive) | > 100 µM (inactive) | > 42.9 µM (inactive) | > 100 µM (inactive) | 27.1 µM (inactive) | > 100 µM (inactive) | > 74.5 µM (inactive) | > 100 µM (inactive) | 25.9 µM (inactive) | > 100 µM (inactive) | 81.3 µM (inactive) | > 100 µM (inactive) | > 100 µM (inactive) | > 100 µM (inactive) | > 40.5 µM (inactive) | 5.86 µM (inactive) | > 86.1 µM (inactive) | > 92 µM (inactive) | > 85.1
